Key:
Assay type in all cases: in vivo
[1] = tested on: Echinochloa oryzoides (Ard.) Fritsch.; assay: Preemergence weed control under flooded paddy conditions, ECHORC (Watergrass (Calif.)); details: flooded paddy; for ECHORC: herbicidal effect rating 0-9, three to four weeks after treatment; for herbicidal effect rating, ECHORC: rated three to four weeks after treatment; as to herbicidal effect rating, ECHORC: meaning of each grade not given here
Cyperus iria = assay: Preemergence weed control under flooded paddy conditions, CYPIR (Rice Flatsedge); details: flooded paddy; for CYPIR: herbicidal effect rating 0-9, three to four weeks after treatment; for herbicidal effect rating, CYPIR: rated three to four weeks after treatment; as to herbicidal effect rating, CYPIR: meaning of each grade not given here
Sagittaria pygmaea, L. = assay: Preemergence weed control under flooded paddy conditions, SAGPY (Arrowhead (Pygmaea)); details: flooded paddy; for SAGPY: herbicidal effect rating 0-9, three to four weeks after treatment; for herbicidal effect rating, SAGPY: rated three to four weeks after treatment; as to herbicidal effect rating, SAGPY: meaning of each grade not given here
[2] = tested on: Cyperus serotinus, Rottb.; assay: Preemergence weed control under flooded paddy conditions, CYPSE (Flatsedge); details: for CYPSE: herbicidal effect rating 0-9, three to four weeks after treatment; for herbicidal effect rating, CYPSE: rated three to four weeks after treatment; as to herbicidal effect rating, CYPSE: meaning of each grade not given here
[3] = tested on: Monochoria vaginalis, Presl.; assay: Preemergence weed control under flooded paddy conditions, MOOVA (Monochoria); details: flooded paddy; for MOOVA: herbicidal effect rating 0-9, three to four weeks after treatment; for herbicidal effect rating, MOOVA: rated three to four weeks after treatment; as to herbicidal effect rating, MOOVA: meaning of each grade not given here
[4] = 0.0320 kg/ha, preemergence weeds
[5] = 0.0620 kg/ha, preemergence weeds
[6] = 0.1250 kg/ha, preemergence weeds
[7] = 0.2500 kg/ha, preemergence weeds
[8] = 0.0313 kg/ha, preemergence weeds
[9] = 0.0625 kg/ha, preemergence weeds
[10] = Rate 0.2500 kg/ha, preemergence

SMILES: Cn1c(C(F)(F)F)cc(=O)n(-c2ccc3snc(COC(=O)Cc4cccs4)c3c2)c1=O [Example 451, 2,4(1H,3H)-Pyrimidinedione, 3-[3-(hydroxymethyl)-1,2-benzisothiazol-5-yl]-1-methyl-6-(trifluoromethyl)-, 2-thienylacetate (ester)]
- ECHORC [1, 4]: 0.0
- ECHORC [1, 5]: 0.0
- ECHORC [1, 6]: 6.0
- ECHORC [1, 7]: 7.0
- CYPIR (Cyperus iria; [4]): 5.0
- CYPIR (Cyperus iria; [5]): 5.0
- CYPIR (Cyperus iria; [6]): 7.0
- CYPIR (Cyperus iria; [7]): 9.0
- SAGPY (Sagittaria pygmaea, L.; [4]): 4.0
- SAGPY (Sagittaria pygmaea, L.; [5]): 5.0
- SAGPY (Sagittaria pygmaea, L.; [6]): 6.0
- SAGPY (Sagittaria pygmaea, L.; [7]): 9.0
- CYPSE [2, 5]: 0.0
- CYPSE [2, 7]: 0.0
- MOOVA [3, 4]: 9.0
- MOOVA [3, 5]: 9.0
- MOOVA [3, 6]: 9.0
- MOOVA [3, 7]: 9.0

SMILES: Cc1ccc(OCC(=O)OC(C)C(=O)O)c(-c2nsc3ccc(-n4c(=O)cc(C(F)(F)F)n(C)c4=O)cc23)c1 (racemic) [Example 190, 2-{{2-{5-[3,6-Dihydro-3-methyl-2,6-dioxo-4-(trifluoromethyl)-1(2H)-pyrimidinyl]-1,2-benzisothiazol-3-yl}-p-tolyl}oxy}acetoxy}-propionic acid, DL-]
- herbicidal effect rating, ECHORC [1, 8]: 2.0
- herbicidal effect rating, ECHORC [1, 9]: 4.0
- herbicidal effect rating, ECHORC [1, 6]: 7.0
- herbicidal effect rating, ECHORC [1, 7]: 8.0
- herbicidal effect rating, CYPIR (Cyperus iria; [8]): 0.0
- herbicidal effect rating, CYPIR (Cyperus iria; [9]): 0.0
- herbicidal effect rating, CYPIR (Cyperus iria; [6]): 2.0
- herbicidal effect rating, CYPIR (Cyperus iria; [7]): 4.0
- herbicidal effect rating, SAGPY (Sagittaria pygmaea, L.; [8]): 0.0
- herbicidal effect rating, SAGPY (Sagittaria pygmaea, L.; [9]): 0.0
- herbicidal effect rating, SAGPY (Sagittaria pygmaea, L.; [6]): 0.0
- herbicidal effect rating, SAGPY (Sagittaria pygmaea, L.; [7]): 0.0
- herbicidal effect rating, CYPSE [2, 8]: 0.0
- herbicidal effect rating, CYPSE [2, 9]: 0.0
- herbicidal effect rating, CYPSE [2, 6]: 0.0
- herbicidal effect rating, CYPSE [2, 7]: 0.0
- herbicidal effect rating, MOOVA [3, 8]: 9.0
- herbicidal effect rating, MOOVA [3, 9]: 9.0
- herbicidal effect rating, MOOVA [3, 6]: 9.0
- herbicidal effect rating, MOOVA [3, 7]: 9.0

SMILES: CONC(=O)c1nsc2ccc(-n3c(=O)cc(C(F)(F)F)n(C)c3=O)cc12 [Example 403, 1,2-Benzisothiazole-3-carboxamide, 5-[3,6-dihydro-3-methyl-2,6-dioxo-4-(trifluoromethyl)-1(2H)-pyrimidinyl]-N-methoxy-]
- ECHORC [1, 4]: 0.0
- ECHORC [1, 5]: 2.0
- ECHORC [1, 6]: 4.0
- herbicidal effect rating, ECHORC [1, 10]: 4.0
- CYPIR (Cyperus iria; [4]): 5.0
- CYPIR (Cyperus iria; [5]): 6.0
- CYPIR (Cyperus iria; [6]): 7.0
- herbicidal effect rating, CYPIR (Cyperus iria; [10]): 9.0
- SAGPY (Sagittaria pygmaea, L.; [4]): 3.0
- SAGPY (Sagittaria pygmaea, L.; [5]): 9.0
- SAGPY (Sagittaria pygmaea, L.; [6]): 9.0
- herbicidal effect rating, SAGPY (Sagittaria pygmaea, L.; [10]): 9.0
- CYPSE [2, 4]: 0.0
- CYPSE [2, 5]: 0.0
- CYPSE [2, 6]: 2.0
- herbicidal effect rating, CYPSE [2, 10]: 4.0
- MOOVA [3, 4]: 7.0
- MOOVA [3, 5]: 6.0
- MOOVA [3, 6]: 9.0
- herbicidal effect rating, MOOVA [3, 10]: 9.0
